Where two headings read alike, the source gives them in different places.
Assays:
Type in all cases: cell-based, human
[1] = test system: LNCaP prostate cancer cells; assay: Cell viability assay (PrestoBlue) on LNCaP cells; conditions: 72 h treatment, PrestoBlue, mean of three independent experiments ± SEM, read-out: LNCaP GI50
Procedure: (§1) The human prostate cancer cell line PC-3 (ATCC Cat# CRL-1435) was grown in Ham’s F12 (Biowest, Nuaillé, France) medium, while the human prostate cancer cell line LNCaP (ATCC Cat# CRL-1740) was grown in RPMI 1640 (Biowest, Nuaillé, France) medium. Both media were supplemented with 10% Fetal Bovine Serum (FBS, Gibco, Fisher Scientific Italia, Segrate, Italy), 2 mM glutamine, 100 U/mL penicillin, and 100 μg/mL streptomycin. PC-3 and LNCaP cells were maintained at 37 °C in a humidified 5% CO2 atmosphere.
(§2) PC-3 and LNCaP cells were seeded at a density of 4000 and 6000 cells/well into a 96-well plate, respectively, together with a calibration curve of known cell numbers. The following day, the cells were treated with the indicated test compounds at different concentrations starting at 75μM with 2-fold serial dilutions. Cell viability was evaluated after 72h by colorimetric MTT (PC-3) or PrestoBlue™ (LNCaP) cell viability reagents. A total of 0.5 mg/mL of thiazolyl blue tetrazolium bromide (MTT) (Sigma-Aldrich, St. Louis, MO, USA) in Ham’s F12 medium was added to the wells, and the plate was incubated at 37 °C for 2 h. Medium containing unconverted MTT was removed, and 100 μL of MTT solvent (4 mM HCl, 0.1% NP40, in isopropyl alcohol) was added to the wells in order to solubilize MTT crystals. After 15 min of incubation at room temperature, the absorbance values at 570 nm were obtained with a Multiskan FC Microplate Photometer (Thermo Fisher Scientific, Waltham, MA, USA). PrestoBlue reagent (#A13261, Thermo Fisher Scientific, Waltham, MA, USA) was added to the medium (1:10 v/v) and incubated for 1 h at 37 °C. Cell viability was calculated by quantifying PrestoBlue reduction by measuring the absorbance at 570 and 620 nm, according to the manufacturer’s protocol. The viability of untreated cells was arbitrarily set at 100%, and the concentration at which cellular growth is inhibited by 50% (GI50) was determined. Three independent experiments were performed.

[2] = test system: acetylated H3 (Ac-H3) in LNCaP cells; assay: Western blot of acetylated histone H3 in LNCaP cells; conditions: 24 h at GI50 concentration
Procedure: (§3) To assess whether the observed antiproliferative activity of the selected compounds was a consequence of HDAC6-targeting, we examined the effect of the cell treatments on the expression levels of acetylated tubulin (Ac-Tub), a well-known HDAC6 target. LNCaP and PC-3 cells were treated with the tested compounds at their GI50 concentrations, and SDS-PAGE and western blot were performed. In addition, the acetylation levels of histone H3, which are mainly regulated by HDAC1, were also evaluated in order to exclude potential class I-HDAC off-target activities. We used Tubastatin-A and Geldanamycin as reference controls for cellular effects resulting from HDAC6- and Hsp90-inhibition, respectively. The results in Figure 2 show a significant increase in α-Tubulin acetylation in LNCaP cells after treatments with compounds 8, 11 and 18. Indeed, these compounds triggered a 2.9-, 5.1-, and 2.5-fold increase, respectively, compared to the control (DMSO). […].
(§4) Figure 2 Western blot analysis and relative quantification of the expression levels of acetylated-Tubulin (Ac-TUB), acetylated H3 (Ac-H3), and HSP70 in LNCaP (A,B) and PC-3 (C,D) cells treated for 24 h at GI50 concentration. Tubastatin-A was used as HDAC6-specific positive control, Geldanamycin (GELDA) as HSP90-specific positive control, and SAHA as pan-HDAC inhibitor. […]

[3] = test system: PC-3 prostate cancer cells; assay: Cell viability assay (MTT) on PC-3 cells; conditions: 72 h treatment, MTT, mean of three independent experiments ± SEM, read-out: PC-3 GI50
Procedure: as §1, §2

[4] = test system: acetylated H3 (Ac-H3) in PC-3 cells; assay: Western blot of acetylated histone H3 in PC-3 cells; conditions: 24 h at GI50 concentration
Procedure: as §3, §4

Row | GI50 [1] [µM] | GI50 ([1]; Homo sapiens, LNCaP, 72 h) [µM] | GI50 [3] [µM] | GI50 ([3]; Homo sapiens, PC-3, 72 h) [µM] | Structure (SMILES) | induction of H3 acetylation [2] | induction of H3 acetylation [4]
1 | 51.6 ± 3.7 | ~50 | 51.8 ± 0.6 | ~50 | O=C(c1cc(OCc2ccccc2)ccc1O)N1CCC(c2noc(C(F)(F)F)n2)CC1 [Compound 8] | no remarkable induction of H3 acetylation | no remarkable induction of H3 acetylation
2 |  | 41.3 ± 8.7 |  | 13.9 ± 2.9 | CC(C)[C@H](C(=O)NCc1ccc(C(=O)NO)cc1)N1Cc2ccccc2C1=O [Compound 11] |  | 
3 |  | > 75 |  | 21 ± 5.4 | O=C(Nc1ncccc1O)c1ccc(-c2noc(C(F)(F)F)n2)cc1 [Compound 18] |  | 

From article PMC11357446, “Searching for Novel HDAC6/Hsp90 Dual Inhibitors with Anti-Prostate Cancer Activity: In Silico Screening and In Vitro Evaluation” (Pharmaceuticals, 2024)
